Molecules are shown by their SMILES.

We go through 1 molecule from patent US20210252151A1, “METHOD FOR OPTICAL OPENING OF THE BLOOD-BRAIN BARRIER” (BOARD OF REGENTS, THE UNIVERSITY OF TEXAS SYSTEM, priority 2018, published 2021).

In this data set the test system is BBB of C57BL/6 mice. The data set can be described thus: Delivery of functional molecules to the brain after BBB transient opening. It is filed as in vivo, mouse. The note with it: after TJ-targeting AuNP and ps laser (25 mJ/cm^2, 1 pulse). The method, then:
To measure the penetration of functional molecule, the anti-cancer drug, doxorubicin, and antibody (human IgG) instead of Evans blue dye were inject intravenously. To test endogenous mouse IgG extravasation, the secondary antibody was incubated with mouse brain tissue sections, followed by fluorescent signal detection.

As for `COc1cccc2c1C(=O)c1c(O)c3c(c(O)c1C2=O)C[C@@](O)(C(=O)CO)C[C@@H]3O[C@H]1C[C@H](N)[C@H](O)[C@H](C)O1` [Dox, doxorubicin], the “crossing of the BBB (extravasation into brain)” value is given as “obvious Dox across the BBB”.
